Data reported in patent US20250136595A1, “ACYLATED HETEROCYCLIC QUINAZOLINE DERIVATIVES AS INHIBITORS OF ERBB2” (Enliven Inc., priority 2022, published 2025).

Legend:
Ba/F3 ERBB2 YVMA = Ba/F3 ERBB2 YVMA (Homo sapiens, UniProt P04626, DUP772-775, cells depend on it); assay: Cell viability assay (CellTiter Glo) in Ba/F3 cells engineered to express ERBB2 YVMA; type: cell-based, mouse; settings: Ba/F3 cells expressing human ERBB2 YVMA mutant, 72 hours, % viability, read-out: Ba/F3 ERBB2 YVMA IC50
Summary of the method: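 IL-3-independent mouse Ba/F3 line stably transduced with human ERBB2 YVMA, seeded at 3000 cells/well, exposed to serially diluted compound (≤0.1% DMSO) for 72 h at 37° C. ATP read by CellTiter Glo luminescence, normalised to DMSO and media-only controls; sigmoidal nonlinear regression fit.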

[1] = biological target: T1, phosphorylated EGFR (pEGFR) (Homo sapiens, UniProt P00533); assay: Detection of phosphorylated EGFR (pEGFR) in EGF-stimulated A431 cells (AlphaLISA); type: cell-based; settings: A431 cells (10% FBS), 4 hours incubation, EGF 30 ng/mL for 10 minutes
T1 construct: performed to measure phosphorylated EGFR levels using A431 cells; endogenous in cells; host or cells: A431
T1 sequence (P00533 25-1210): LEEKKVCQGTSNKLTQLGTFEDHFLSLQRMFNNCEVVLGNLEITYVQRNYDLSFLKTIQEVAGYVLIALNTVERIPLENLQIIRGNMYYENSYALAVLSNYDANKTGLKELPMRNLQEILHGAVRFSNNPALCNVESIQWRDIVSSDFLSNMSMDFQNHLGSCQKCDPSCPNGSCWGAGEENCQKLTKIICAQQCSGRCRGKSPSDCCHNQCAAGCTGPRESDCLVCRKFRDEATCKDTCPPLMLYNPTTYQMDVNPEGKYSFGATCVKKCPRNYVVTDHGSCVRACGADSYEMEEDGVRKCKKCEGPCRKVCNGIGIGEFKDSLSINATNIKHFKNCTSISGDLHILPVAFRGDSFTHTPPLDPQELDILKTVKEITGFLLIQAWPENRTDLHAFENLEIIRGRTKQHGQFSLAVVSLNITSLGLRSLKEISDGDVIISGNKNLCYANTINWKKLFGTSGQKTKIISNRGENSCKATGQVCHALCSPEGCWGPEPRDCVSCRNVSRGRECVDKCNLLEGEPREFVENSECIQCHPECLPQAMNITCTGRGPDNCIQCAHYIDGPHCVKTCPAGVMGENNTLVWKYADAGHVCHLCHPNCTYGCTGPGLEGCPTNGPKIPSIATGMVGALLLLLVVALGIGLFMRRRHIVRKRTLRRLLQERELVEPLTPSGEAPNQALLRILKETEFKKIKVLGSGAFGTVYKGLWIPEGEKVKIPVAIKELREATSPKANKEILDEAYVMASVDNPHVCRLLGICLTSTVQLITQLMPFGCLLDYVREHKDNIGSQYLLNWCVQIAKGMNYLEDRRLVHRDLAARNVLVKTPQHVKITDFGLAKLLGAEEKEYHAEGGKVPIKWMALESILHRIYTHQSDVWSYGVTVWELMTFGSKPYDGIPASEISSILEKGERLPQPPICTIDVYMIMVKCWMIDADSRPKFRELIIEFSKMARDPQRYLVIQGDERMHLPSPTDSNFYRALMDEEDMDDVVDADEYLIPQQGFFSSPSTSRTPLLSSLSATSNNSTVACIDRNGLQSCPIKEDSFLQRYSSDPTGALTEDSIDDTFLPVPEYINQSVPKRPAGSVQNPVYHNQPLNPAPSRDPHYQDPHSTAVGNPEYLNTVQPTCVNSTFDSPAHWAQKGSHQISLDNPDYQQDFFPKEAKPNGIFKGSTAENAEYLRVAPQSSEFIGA
Summary of the method: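 Cells in 10% FBS treated with compound 4 h at 37° C., then stimulated 10 min with 30 ng/mL EGF, lysed, and pEGFR measured by AlphaLISA. Inhibition normalized to DMSO and staurosporine controls; IC50 from four-parameter logistic fit.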

[2] = biological target: T2, phosphorylated ERBB2 (pERBB2) (Homo sapiens, UniProt P04626); assay: Detection of phosphorylated ERBB2 (pERBB2) by ELISA in BT-474 cells; type: cell-based; settings: four hour incubation with compound
T2 construct: endogenous in cells; host or cells: BT-474
T2 sequence (P04626 23-1255): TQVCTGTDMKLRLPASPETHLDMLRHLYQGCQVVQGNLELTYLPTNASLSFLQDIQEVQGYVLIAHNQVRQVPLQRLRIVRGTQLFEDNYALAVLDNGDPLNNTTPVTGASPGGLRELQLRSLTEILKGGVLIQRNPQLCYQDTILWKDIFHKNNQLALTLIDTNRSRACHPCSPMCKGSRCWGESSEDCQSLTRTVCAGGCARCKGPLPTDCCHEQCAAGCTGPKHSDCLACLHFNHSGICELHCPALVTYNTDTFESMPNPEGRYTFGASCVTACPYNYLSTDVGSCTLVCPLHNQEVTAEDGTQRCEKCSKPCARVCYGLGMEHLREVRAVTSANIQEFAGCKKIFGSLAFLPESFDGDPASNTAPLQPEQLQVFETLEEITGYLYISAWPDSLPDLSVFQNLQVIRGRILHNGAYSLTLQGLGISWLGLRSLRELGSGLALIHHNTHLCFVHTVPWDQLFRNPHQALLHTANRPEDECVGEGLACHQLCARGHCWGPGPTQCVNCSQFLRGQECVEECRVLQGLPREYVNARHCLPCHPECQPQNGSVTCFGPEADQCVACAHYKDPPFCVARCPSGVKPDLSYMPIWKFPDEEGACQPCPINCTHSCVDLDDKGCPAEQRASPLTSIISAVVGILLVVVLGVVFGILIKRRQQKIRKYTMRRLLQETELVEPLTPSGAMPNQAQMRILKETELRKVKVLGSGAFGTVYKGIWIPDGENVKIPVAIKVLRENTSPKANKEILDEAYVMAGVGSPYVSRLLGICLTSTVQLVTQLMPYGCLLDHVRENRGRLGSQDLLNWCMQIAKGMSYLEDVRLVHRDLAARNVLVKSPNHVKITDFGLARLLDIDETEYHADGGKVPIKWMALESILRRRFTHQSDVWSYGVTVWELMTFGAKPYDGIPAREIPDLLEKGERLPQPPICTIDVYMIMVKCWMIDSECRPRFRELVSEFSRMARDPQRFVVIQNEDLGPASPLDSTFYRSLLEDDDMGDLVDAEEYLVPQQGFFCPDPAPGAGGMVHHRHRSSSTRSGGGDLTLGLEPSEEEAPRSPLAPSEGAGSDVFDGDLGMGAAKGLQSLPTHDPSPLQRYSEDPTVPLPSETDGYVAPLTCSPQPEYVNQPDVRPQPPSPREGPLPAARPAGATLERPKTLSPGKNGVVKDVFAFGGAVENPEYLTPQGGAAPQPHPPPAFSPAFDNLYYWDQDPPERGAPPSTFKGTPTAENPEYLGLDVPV
Summary of the method: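 BT-474 cells treated 4 h at 37 °C, 5% CO2 with four-fold dilutions (10 μM to 0.01 nM final). Lysates analysed by ELISA for pERBB2, TMB read at OD 450 nm. % relative activity normalised to no-cell (low) and 0.1% DMSO-treated (high) controls.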

Chain of Ba/F3 ERBB2 YVMA (P04626 with tags, fused parts or gaps DUP772-775): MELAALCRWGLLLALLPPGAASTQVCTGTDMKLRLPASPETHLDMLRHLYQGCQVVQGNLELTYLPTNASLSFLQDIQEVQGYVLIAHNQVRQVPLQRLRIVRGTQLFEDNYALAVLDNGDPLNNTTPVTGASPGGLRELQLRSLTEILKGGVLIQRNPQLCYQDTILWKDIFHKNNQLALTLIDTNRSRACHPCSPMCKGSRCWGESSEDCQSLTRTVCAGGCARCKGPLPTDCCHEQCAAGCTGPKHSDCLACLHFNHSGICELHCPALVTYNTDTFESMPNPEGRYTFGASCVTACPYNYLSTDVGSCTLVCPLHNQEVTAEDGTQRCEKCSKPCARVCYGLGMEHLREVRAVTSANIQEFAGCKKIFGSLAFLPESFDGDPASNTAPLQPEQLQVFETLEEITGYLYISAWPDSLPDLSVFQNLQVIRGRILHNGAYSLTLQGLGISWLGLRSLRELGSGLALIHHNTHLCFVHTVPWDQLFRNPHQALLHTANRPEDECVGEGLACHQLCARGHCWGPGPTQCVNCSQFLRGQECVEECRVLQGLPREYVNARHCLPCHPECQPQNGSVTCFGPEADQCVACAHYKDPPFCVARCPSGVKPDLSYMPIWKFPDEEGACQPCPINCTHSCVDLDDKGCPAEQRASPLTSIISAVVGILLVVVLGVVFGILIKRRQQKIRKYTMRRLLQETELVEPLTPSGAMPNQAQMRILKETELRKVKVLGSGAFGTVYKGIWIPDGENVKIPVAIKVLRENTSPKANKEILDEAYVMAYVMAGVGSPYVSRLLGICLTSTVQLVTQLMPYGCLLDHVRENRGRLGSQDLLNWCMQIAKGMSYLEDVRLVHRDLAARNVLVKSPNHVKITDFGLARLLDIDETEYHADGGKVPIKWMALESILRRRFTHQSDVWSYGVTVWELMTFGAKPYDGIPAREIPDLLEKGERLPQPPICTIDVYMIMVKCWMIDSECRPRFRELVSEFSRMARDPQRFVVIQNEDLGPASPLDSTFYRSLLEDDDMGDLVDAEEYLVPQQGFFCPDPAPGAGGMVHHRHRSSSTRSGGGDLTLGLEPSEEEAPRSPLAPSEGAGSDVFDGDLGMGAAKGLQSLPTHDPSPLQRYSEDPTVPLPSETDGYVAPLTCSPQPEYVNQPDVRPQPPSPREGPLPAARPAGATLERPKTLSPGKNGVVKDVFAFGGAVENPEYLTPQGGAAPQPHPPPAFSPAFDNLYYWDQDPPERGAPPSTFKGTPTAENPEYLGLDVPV

IC50 [1] [nM]	IC50 [2] [nM]	Compound	GI50 (Ba/F3 ERBB2 YVMA) [nM]
> 10000	24.7	C=CC(=O)N1CCN(c2ccc3ncnc(Nc4ccc(Cc5ccn6ncnc6c5)c(C)c4)c3c2)[C@@H](C)C1 [Compound 104, (S)-1-(4-(4-((4-([1,2,4]triazolo[1,5-a]pyridin-7-ylmethyl)-3-methylphenyl)amino)quinazolin-6-yl)-3-methylpiperazin-1-yl)prop-2-en-1-one]	65.1
> 10000	43.9	Cc1cc(Nc2ncnc3ccc(N4CCN(C(=O)/C=C/CN(C)C)C[C@@H]4C)nc23)ccc1Cc1ccn2ncnc2c1 [Compound 105, (2E)-4-(dimethylamino)-1-[(3S)-3-methyl-4-{4-[(3-methyl-4-{[1,2,4]triazolo[1,5-a]pyridin-7-ylmethyl}phenyl)amino]pyrido[3,2-d]pyrimidin-6-yl}piperazin-1-yl]but-2-en-1-one]	145
1060	18.1	C=CC(=O)N1CCN(c2cc3c(Nc4ccc(Oc5ccc6c(c5)ncn6C)c(C)c4)ncnc3cn2)CC1 [Compound 106, 1-{4-[4-({3-methyl-4-[(1-methyl-1,3-benzodiazol-5-yl)oxy]phenyl}amino)pyrido[3,4-d]pyrimidin-6-yl]piperazin-1-yl}prop-2-en-1-one formic acid]	10.3
2880	21.8	C=CC(=O)N1CCN(c2cc3c(Nc4ccc(Oc5ccc6c(c5)ncn6C)c(C)c4)ncnc3cn2)[C@@H](C)C1 [Compound 107, 1-[(3S)-3-methyl-4-[4-({3-methyl-4-[(1-methyl-1,3-benzodiazol-5-yl)oxy]phenyl}amino)pyrido[3,4-d]pyrimidin-6-yl]piperazin-1-yl]prop-2-en-1-one]	73.4
695	10	C=CC(=O)N1CCN(c2ccc3ncnc(Nc4ccc(Oc5ccn6ncnc6c5)c(C)c4)c3n2)CC1(C)C [Compound 108, 1-(4-(4-((4-([1,2,4]triazolo[1,5-a]pyridin-7-yloxy)-3-methylphenyl)amino)pyrido[3,2-d]pyrimidin-6-yl)-2,2-dimethylpiperazin-1-yl)prop-2-en-1-one]	10.9
839	10.2	C=CC(=O)N1CCN(c2cc3c(Nc4ccc(Oc5ccn6ncnc6c5)c(C)c4)ncnc3cn2)CC1 [Compound 109, 1-(4-(4-((4-([1,2,4]triazolo[1,5-a]pyridin-7-yloxy)-3-methylphenyl)amino)pyrido[3,4-d]pyrimidin-6-yl)piperazin-1-yl)prop-2-en-1-one]	13.4
3070	9.86	C=CC(=O)N1CCN(c2ccc3ncnc(Nc4ccc(Cc5ccn6ncnc6c5)c(C)c4)c3n2)CC1 [Compound 110, 1-(4-(4-((4-([1,2,4]triazolo[1,5-a]pyridin-7-ylmethyl)-3-methylphenyl)amino)pyrido[3,2-d]pyrimidin-6-yl)piperazin-1-yl)prop-2-en-1-one]	13.3
5460	28.1	C=CC(=O)N1CCN(c2ncc3ncnc(Nc4ccc(Cc5ccn6ncnc6c5)c(C)c4)c3n2)C[C@H]1C [Compound 111, (R)-1-(4-(8-((4-([1,2,4]triazolo[1,5-a]pyridin-7-ylmethyl)-3-methylphenyl)amino)pyrimido[5,4-d]pyrimidin-2-yl)-2-methylpiperazin-1-yl)prop-2-en-1-one]	22.7
> 10000	33.1	C=CC(=O)N1CCN(c2ccc3ncnc(Nc4ccc(Cc5ccn6ncnc6c5)c(C)c4)c3c2)C[C@H]1C [Compound 112, (R)-1-(4-(4-((4-([1,2,4]triazolo[1,5-a]pyridin-7-ylmethyl)-3-methylphenyl)amino)quinazolin-6-yl)-2-methylpiperazin-1-yl)prop-2-en-1-one]	28
> 10000	31.9	C=CC(=O)N1CCN(c2ncc3ncnc(Nc4ccc(Cc5ccn6ncnc6c5)c(C)c4)c3n2)[C@@H](C)C1 [Compound 113, 1-[(3S)-3-methyl-4-{8-[(3-methyl-4-{[1,2,4]triazolo[1,5-a]pyridin-7-ylmethyl}phenyl)amino]pyrimido[5,4-d][1,3]diazin-2-yl}piperazin-1-yl]prop-2-en-1-one]	8.87
> 10000	45.9	C=CC(=O)N1CCN(c2ccc3ncnc(Nc4ccc(Oc5ccn6ncnc6c5)c(C)c4)c3c2F)C(C)C1 (stereo not drawn) [Compound 114, 1-(4-{5-fluoro-4-[(3-methyl-4-{[1,2,4]triazolo[1,5-a]pyridin-7-yloxy}phenyl)amino]quinazolin-6-yl}-3-methylpiperazin-1-yl)prop-2-en-1-one]	53.9
4290	16.9	C=CC(=O)N1CCN(c2ncc3ncnc(Nc4ccc(Cc5ccn6ncnc6c5)c(C)c4)c3n2)CC1 [Compound 115, 1-(4-(8-((4-([1,2,4]triazolo[1,5-a]pyridin-7-ylmethyl)-3-methylphenyl)amino)pyrimido[5,4-d]pyrimidin-2-yl)piperazin-1-yl)prop-2-en-1-one]	9.29
1790	21.9	Cc1cc(Nc2ncnc3ccc(N4CCN(C(=O)/C=C/CN(C)C)[C@H](C)C4)nc23)ccc1Oc1ccn2ncnc2c1 [Compound 116, (R,E)-1-(4-(4-((4-([1,2,4]triazolo[1,5-a]pyridin-7-yloxy)-3-methylphenyl)amino)pyrido[3,2-d]pyrimidin-6-yl)-2-methylpiperazin-1-yl)-4-(dimethylamino)but-2-en-1-one]	10.1
> 10000	24.5	Cc1cc(Nc2ncnc3ccc(N4CCN(C(=O)/C=C/CN(C)C)[C@H](C)C4)nc23)ccc1Cc1ccn2ncnc2c1 [Compound 117, (R,E)-1-(4-(4-((4-([1,2,4]triazolo[1,5-a]pyridin-7-ylmethyl)-3-methylphenyl)amino)pyrido[3,2-d]pyrimidin-6-yl)-2-methylpiperazin-1-yl)-4-(dimethylamino)but-2-en-1-one]	25.1
107	11.5	C=CC(=O)N1CCN(c2ccc3ncnc(Nc4ccc(Oc5ccn6ncnc6c5)c(C)c4)c3n2)CC12CC2 [Compound 118, 1-(7-{4-[(3-methyl-4-{[1,2,4]triazolo[1,5-a]pyridin-7-yloxy}phenyl)amino]pyrido[3,2-d]pyrimidin-6-yl}-4,7-diazaspiro[2.5]octan-4-yl)prop-2-en-1-one]	7.76
97	26	C=CC(=O)N1CCN(c2ccc3ncnc(Nc4ccc(Oc5ccc6scnc6c5)c(C)c4)c3n2)CC1 [Compound 119, 1-(4-(4-((4-(benzo[d]thiazol-5-yloxy)-3-methylphenyl)amino)pyrido[3,2-d]pyrimidin-6-yl)piperazin-1-yl)prop-2-en-1-one]	4.67
2080	36.5	Cc1cc(Nc2ncnc3ccc(N4CCN(C(=O)/C=C/CN(C)C)CC4)nc23)ccc1Cc1ccc2c(c1)ncn2C [Compound 120, (E)-4-(dimethylamino)-1-(4-(4-((3-methyl-4-((1-methyl-1H-benzo[d]imidazol-5-yl)methyl)phenyl)amino)pyrido[3,2-d]pyrimidin-6-yl)piperazin-1-yl)but-2-en-1-one]	7.1
6740	55.9	Cc1cc(Nc2ncnc3ccc(N4CCN(C(=O)/C=C/CN(C)C)[C@H](C)C4)nc23)ccc1Cc1ccc2c(c1)ncn2C [Compound 121, (R,E)-4-(dimethylamino)-1-(2-methyl-4-(4-((3-methyl-4-((1-methyl-1H-benzo[d]imidazol-5-yl)methyl)phenyl)amino)pyrido[3,2-d]pyrimidin-6-yl)piperazin-1-yl)but-2-en-1-one]	9.08
> 10000	53.2	Cc1cc(Nc2ncnc3cnc(N4CCN(C(=O)/C=C/CN(C)C)[C@H](C)C4)nc23)ccc1Cc1ccn2ncnc2c1 [Compound 122, (R,E)-1-(4-(8-((4-([1,2,4]triazolo[1,5-a]pyridin-7-ylmethyl)-3-methylphenyl)amino)pyrimido[5,4-d]pyrimidin-2-yl)-2-methylpiperazin-1-yl)-4-(dimethylamino)but-2-en-1-one]	32.4
1270	53	C=CC(=O)N1C2CCC1CN(c1ccc3ncnc(Nc4ccc(Cc5ccc6c(c5)ncn6C)c(C)c4)c3n1)C2 [Compound 123, 1-(3-(4-((3-methyl-4-((1-methyl-1H-benzo[d]imidazol-5-yl)methyl)phenyl)amino)pyrido[3,2-d]pyrimidin-6-yl)-3,8-diazabicyclo[3.2.1]octan-8-yl)prop-2-en-1-one]	9.61
2580	138	C=CC(=O)N1CCN(c2ccc3ncnc(Nc4ccc(Oc5ccc(CC)nc5)c(C)c4)c3n2)CC1 [Compound 124, 1-(4-(4-((4-((6-ethylpyridin-3-yl)oxy)-3-methylphenyl)amino)pyrido[3,2-d]pyrimidin-6-yl)piperazin-1-yl)prop-2-en-1-one]	35.9
